Source: PMC10813298, “Evidence of Guanidines Potential against Leishmania (Viannia) braziliensis: Exploring In Vitro Effectiveness, Toxicities and of Innate Immunity Response Effects” (Biomolecules, 2023)

Experiments:
aorta = experiment: Vasodilator effect on aortic rings (KCl contraction); settings: Cavia porcellus; guinea pig aortic rings
Method: (§1) Guinea pigs of either sex weighing between 250 or 380 g were utilized in this study. The animals were housed in a controlled environment in an air-conditioned room, maintaining a temperature of 22 to 24 °C and a relative humidity of 50% to 60%. A 12 h light–dark cycle was maintained.
(§2) On the day of the experiments, the animals were euthanized via cervical dislocation. The heart, aorta, pulmonary artery, and ileum were surgically removed and immersed in Krebs–Henseleit solution, with the following composition: NaCl 144.9 mM, KCl 4.73 mM, CaCl2 3.2 mM, MgSO4 1.18 mM, NaHCO3 24.9 mM, KH2PO4 1.18 mM, and glucose 10 mM, with the pH maintained at 7.2–7.4. This solution was continuously aerated with a mixture of 95% O2 and 5% CO2.
Papillary muscles were isolated from the right ventricle of the heart and meticulously cleared of Purkinje fibers to prevent spontaneous activity. To ensure adequate oxygen supply, only muscles with a diameter less than 0.87 mm were used. The right atrium was also dissected for assessment of chronotropic activity. […]
(§3) Following a 30 min control period, different concentrations of test compounds were cumulatively added to the bath solution every 45 min until a stable effect was achieved. The responses were recorded using a chart recorder (BD 112 Dual Channel, Kipp &Zonen, PO Box 507, 2624 BC, Delft, Holland) for subsequent evaluation. […]

pulmonary artery = experiment: Vasodilator effect on pulmonary artery rings (KCl contraction); settings: guinea pig pulmonary artery rings
Method: as §1, §2
Papillary muscles were isolated from the right ventricle of the heart and meticulously cleared of Purkinje fibers to prevent spontaneous activity. To ensure adequate oxygen supply, only muscles with a diameter less than 0.87 mm were used. The right atrium was also dissected for assessment of chronotropic activity. Both the aorta and pulmonary artery were cleaned and cut into 5 mm rings, while the ileum was sectioned into pieces measuring 1 to 2 cm.
One end of the dissected tissues was securely tied with silver wire for attachment to a tissue holder, while the other end was connected to a force transducer (Transbridge™, 4-Channel Transducer Amplifier, World Precision Instruments, Sarasota, FL, USA). For contractile measurements, the terminal ileum was stimulated with 60 mM KCl, and the pulmonary artery and aorta rings were exposed to a 90 mM KCl solution. […]
as §3

[1] = test system: Leishmania (Leishmania) amazonensis; set-up: method as in PMID 36551331; settings: BALB/c-L. (L.) amazonensis, 0.13 mg/kg/day; cited from earlier work

O=C(/N=C(/NCc1ccccc1)Nc1ccc(Br)cc1)c1ccccc1 [LQOF-G2, (Z)-N-benzoyl-N-benzyl-N-(4-bromophenyl)guanidine]
EC50 (aorta): 16 µM | EC50 (pulmonary artery; Cavia porcellus): 48 µM | arteria pulmonalis ring contraction force (pulmonary artery): decrease | reduction in the parasite load [1]: 46%
